Experimental data from patent US6465460B1, “Compositions and methods for prevention and treatment of protozoal disease” (New Ace Research Company, priority 1998, dated 2002).

Columns and labels:
in vivo = assay: in vivo; parameters: species or system horse
Procedure: OWENS, (about 1,000 lbs.) received 750 mg of diclazuril powder dissolved in 30 ml of DMSO, intravenously, twice on day one, at zero and zero plus one hours for a total dose of 1,500 mg. Blood samples were drawn at the indicated time points immediately before the next dosing and the solid circles [drawing 4] in FIG. 1 represent plasma concentrations of diclazuril after these administrations. Plasma concentrations of dicalzuril in ng/ml are represented on the vertical axis against time in days on the horizontal axis. […] Concentrations at 72 hr and 96 hr were not included in calculation following IV administration. Area Under the Curve (AUC from 0 to ∞): Intercept-Slope Method [formula] […] Cl=55.26 ml/min. […] ClH=QH. EH EH is lower than 0.3 so diclazuril is found to have low hepatic extraction ratio.

[1] = Repeated daily IV administration of diclazuril in DMSO to the horse DEEP POWDER: plasma levels; assay type: in vivo; details: horse 1160 lbs, 0.5 mg/lb (580 mg) in DMSO IV once a day for eight days, sampled 24 hours after each dose, read-out: final steady state plasma concentration of diclazuril
Procedure: The horse, DEEP POWDER, 1160 lbs., in Table 2 above was administered diclazuril at a dose of 0.5 mg/lb. (580 mg) in DMSO IV once a day for eight days. Plasma levels of diclazuril at 24 hours after each dose administration and just before the next day's dosing are represented by the solid circles [drawing 6]
in the above Table 2. Note bow the dose of […] yields a stepwise increasing plasma concentrations of diclazuril, yielding a final steady state plasma concentration of diclazuril of about 10,000 ng/ml.

[2] = assay type: physicochemical
Procedure: Diclazuril has a very low solubility in water (<1×10^−7 at pH 6.5) and can in fact be considered as practically-insoluble in water. A presently preferred plasma drug concentration of about 8 μg/ml for about 25-30 days is needed for the effective treatment of equine protozoan myeloencephalitis (EPM). The oral bioavailability of diclazuril is very low. Thus, a parenteral formulation is desired.
(§1) Sodium salt of diclazuril was dissolved in water. […] The pH of the aqueous solution was 12.4. To this solution, 1N HCl was added dropwise while stirring and the pH at which the solution began to turn cloudy was recorded.

pKa of diclazuril = assay type: physicochemical; details: aqueous solution of the sodium salt of diclazuril; inferred from pH stability study of the sodium salt; read-out: pKa inferred from precipitation pH
Procedure: (§2) The manufacturer of diclazuril, JANSEEN Research Foundation, listed the pKa of diclazuril to be 5.92 in its physico-chemical characteristics of diclazuril. It can be expected that at pH's above the pKa of the compound (i.e. pH>6), aqueous solution of diclazuril would stay in solution. Preliminary studies were conducted to determine the pH at which sodium salt would precipitate.
as §1

[3] = listed by JANSEEN Research Foundation; cited from earlier work
Babesia equi = details: horses treated for piroplasmosis; cited from earlier work
[4] = pH stability of sodium salt of diclazuril (dropwise 1N HCl until cloudy); assay type: physicochemical
Procedure: as §2, §1
This will not cause a problem as there are many drugs on the market that are formulated at higher pHs for exactly the same reason.

SMILES: N#CC(c1ccc(Cl)cc1)c1c(Cl)cc(-n2ncc(=O)[nH]c2=O)cc1Cl (stereo not drawn) [diclazuril]
- level of diclazuril in urine samples (in vivo): Not detectable
- EH (hepatic extraction ratio) (in vivo; horse): lower than 0.3
- AUC (in vivo; horse, iv): 452 µg·h/mL
- clearance (in vivo; horse, iv): 55.3 mL/min
- half-life (in vivo; horse, iv): ~48 h
- concentration at 24 h [1]: ~10000 ng/mL
- solubility in water (in words) [2]: completely insoluble in water
- pKa (pKa of diclazuril): ~10.5
- pKa listed by manufacturer [3]: 5.92

SMILES: O=C(Nc1cccc(C2=NCCN2)c1)Nc1cccc(C2=NCCN2)c1 [imidocarb dipropionate]
- adverse side effects of treatment (Babesia equi): salivation, restlessness, colic and gastrointestinal tract hypermotility

SMILES: N#CC(c1ccc(Cl)cc1)c1c(Cl)cc(-n2ncc(=O)[n-]c2=O)cc1Cl.[Na+] (stereo not drawn) [sodium salt of diclazuril]
- pH at which the solution began to turn cloudy ([4]; 1N HCl added dropwise while stirring, preliminary study): 10.5
- pH of the aqueous solution ([4]; sodium salt dissolved in water): 12.4
